Reference: patent US11576892B2, “Benzopyran derivatives and uses thereof” (Novation Pharmaceuticals Inc., priority 2015, dated 2023)

Experiments:
[1] = test system: IL-6 release from THP 1 cells; assay: IL-6 release from THP 1 cells measured by ELISA; assay type: cell-based, human; conditions: IFNγ/LPS-stimulated THP 1 cells, 24 h
Protocol: The THP 1 cell line is generally available and is described by Tsuchia et. al. Tsuchiya, Yamabe et al. (1980). Establishment and characterization of a human acute monocytic leukemia cell line (THP-1). Int J Cancer. 26: 171-176.
900 μl THP 1 cells (0.5×10^6 cells) together with 100 Uγ interferon/0.9 ml RPMI 1640 medium (containing 2 mM L glutamine and 5% heat inactivated fetal calf serum) are pipetted into 24-well culture plates. 100 μl of the compound to be tested are then added. After 3 hours at 37° C. in 5% CO2/95% air, 10 μl lipopolysaccharide (LPS) 500 μg/ml is added and the incubation continued for a further 24 hours. Appropriate controls (with and without stimulus, solvent) are also included. The media are then removed and clarified by centrifugation at 1000 g for 10 min. Samples are stored at […] until the determinations can be made. IL 1β, IL 6 IL-12, and IL-23 assays are determined using commercially available ELISA kits. In these tests, the compounds of the disclosure may inhibit IL-1β, IL-6, IL-12 and IL-23 release at a concentration of about 10 to 50 μM. The compounds are non-toxic based on resazurin measurements as described in Didiot, Hewett et al. (2013). Identification of cardiac glycoside molecules as inhibitors of c-Myc IRES-mediated translation. J Biomol Screen. 18: 407-419.

IL-6 release from PBMCs = IL-6 release from PBMCs measured by ELISA; assay type: cell-based; conditions: LPS or PHA stimulated human PBMCs
Protocol: (§1) Mononuclear cells are obtained from the blood of healthy volunteers via centrifugation and cultivated on tissue culture dishes with the test compound at various concentrations Schnyder, Bollinger et al. (1990). Inhibition of interleukin-1 release by IX 207-887. Agents Actions. 30: 350-362. Fresh human mononuclear cells were isolated on Ficoll-Paque gradient and washed several times. Fresh medium, test compound and LPS (10 μg/ml) or PHA (5 μg/ml) as stimulant are added and the monocytes incubated for a further day. The media are then removed and clarified by centrifugation at 1000×g for 10 min. Samples are stored at […] until the determinations can be made. IFNγ, IL 1β, IL 6, and IL-17 are determined using commercially available ELISA kits.

IL-1β release from PBMCs = IL-1β release from PBMCs measured by ELISA; assay type: cell-based; conditions: LPS or PHA stimulated human PBMCs
Protocol: as §1

IL-6 mRNA = assay: mRNA stability reporter gene (luciferase) assay, IL-6; assay type: cell-based; conditions: luciferase reporter, 24 h; unit printed truncated
Protocol: (§2) The basic principle of a reporter gene assay for determining compounds that destabilize mRNA is described in detail in WO 00/39314. A number of these assays for various drug targets have been developed and were tested with the compounds described in this disclosure. For THP-1 cells, compound is added at the time of the addition of LPS and luciferase measurements are taken 24 hours later or as indicated. For other cell lines, cells were plated in 96 well plates at 5*10^5 cells per 100 ul per well and incubated over night at 37° C. Compounds were then added and luciferase activity was measured after 24 hours. The activity was compared to other mRNA stability assays established for a range of other drug targets and found to be specific for IL-6, IL-12p40 and IL-23p19. Luciferase activity in the IL-6, IL-12 and IL-23 assays was inhibited by 10 μM benzopyran derivatives by >40% (Table IV).

IL-12 p40 mRNA = assay: mRNA stability reporter gene (luciferase) assay, IL-12 p40; assay type: cell-based; conditions: 10 μM, 24 h, n.a. = no activity
Protocol: as §2

IL-23 p19 mRNA = assay: mRNA stability reporter gene (luciferase) assay, IL-23 p19; assay type: cell-based; conditions: 10 μM, 24 h, n.a. = no activity
Protocol: as §2

Htt mRNA = assay: mRNA stability reporter gene (luciferase) assay, Htt; assay type: cell-based; conditions: 10 μM, 24 h, n.a. = no activity
Protocol: as §2

SNCA mRNA = assay: mRNA stability reporter gene (luciferase) assay, SNCA; assay type: cell-based; conditions: 10 μM, 24 h, n.a. = no activity
Protocol: as §2

APP mRNA = assay: mRNA stability reporter gene (luciferase) assay, APP; assay type: cell-based; conditions: 10 μM, 24 h, n.a. = no activity
Protocol: as §2

DNMT1 mRNA = assay: mRNA stability reporter gene (luciferase) assay, DNMT1; assay type: cell-based; conditions: 10 μM, 24 h, n.a. = no activity
Protocol: as §2

COc1cc(O)c2c(c1OC)/C=C/C[C@H](O)[C@H](O)C(=O)/C=C\C[C@H](C)OC2=O [RAA, radicicol analog A, reference compound]
IL-6 release from THP 1 cells, % control ([1]; 10 μM): 3 % control | IL-6 release from THP 1 cells, % control ([1]; 40 μM): 2 % control | IL-6 release from THP 1 cells, % control ([1]; 100 μM): 3 % control | IL-6 release from PBMCs (% control) (IL-6 release from PBMCs; 2.5 μM): 10 % control | IL-6 release from PBMCs (% control) (IL-6 release from PBMCs; 5 μM): 9 % control | IL-6 release from PBMCs (% control) (IL-6 release from PBMCs; 10 μM): 11 % control | IL-6 release from PBMCs (% control) (IL-6 release from PBMCs; 20 μM): 11 % control | IL-1β release from PBMCs (% control) (IL-1β release from PBMCs; 2.5 μM): 4 % control | IL-1β release from PBMCs (% control) (IL-1β release from PBMCs; 5 μM): 4 % control | IL-1β release from PBMCs (% control) (IL-1β release from PBMCs; 10 μM): 4 % control | IL-1β release from PBMCs (% control) (IL-1β release from PBMCs; 20 μM): 4 % control | IC50 (IL-6 mRNA): 128 nM | IL-12 p40 mRNA stability assay (% inhibition) (IL-12 p40 mRNA): 64 % inhibition | IL-23 p19 mRNA stability assay (% inhibition) (IL-23 p19 mRNA): 94 % inhibition | Htt mRNA stability assay (% inhibition) (Htt mRNA): 35 % inhibition | SNCA mRNA stability assay (% inhibition) (SNCA mRNA): 25 % inhibition | APP mRNA stability assay (% inhibition) (APP mRNA): 5 % inhibition | DNMT1 mRNA stability assay (% inhibition) (DNMT1 mRNA): 19 % inhibition
